# Reference: the supplement of paper PMC10307832
# How the values were obtained:
# Assay in all cases: relative viability (nuclei count vs DMSO), 5 days (fraction); higher = more cells survive
# XMD13-2 + Olaparib = compound: C1CC1C(=O)NC2=NNC3=C2C=CC(=C3)C4=CC(=CC=C4)C(=O)NC5CC5 [XMD13-2] + O=C(c1cc(Cc2n[nH]c(=O)c3ccccc23)ccc1F)N1CCN(C(=O)C2CC2)CC1 [Olaparib] (partner 8 µM)
# Summary of the method: (§1)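 Relative viability equals treated-well nuclei counts divided by vehicle-well nuclei counts. Counts came from 4× images of lung cancer cell lines grown in 1536-well plates for 5 days after pin-tool dosing on the day after seeding. Dosing used one drug alone or a fixed anchor-drug dose plus five library-drug doses (not always all listed) in √10 steps, and values are medians of duplicate plates.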
# Dasatinib + Luminespib = compound: Cc1nc(Nc2ncc(C(=O)Nc3c(C)cccc3Cl)s2)cc(N2CCN(CCO)CC2)n1 [Dasatinib] + CCNC(=O)c1noc(-c2cc(C(C)C)c(O)cc2O)c1-c1ccc(CN2CCOCC2)cc1 [Luminespib] (partner 0.01 µM)
# Summary of the method: as §1
# XMD13-2 + Linsitinib = compound: C1CC1C(=O)NC2=NNC3=C2C=CC(=C3)C4=CC(=CC=C4)C(=O)NC5CC5 [XMD13-2] + C[C@]1(O)C[C@@H](c2nc(-c3ccc4ccc(-c5ccccc5)nc4c3)c3c(N)nccn32)C1 [Linsitinib] (partner 1 µM)
# Summary of the method: as §1
# Dasatinib + Tozasertib = compound: Cc1nc(Nc2ncc(C(=O)Nc3c(C)cccc3Cl)s2)cc(N2CCN(CCO)CC2)n1 [Dasatinib] + Cc1cc(Nc2cc(N3CCN(C)CC3)nc(Sc3ccc(NC(=O)C4CC4)cc3)n2)n[nH]1 [Tozasertib] (partner 0.1 µM)
# Summary of the method: as §1
Cell Line,relative viability (XMD13-2 + Olaparib; first compound 0.05 µM),relative viability (XMD13-2 + Olaparib; first compound 0.1581 µM),relative viability (XMD13-2 + Olaparib; first compound 0.5 µM),relative viability (XMD13-2 + Olaparib; first compound 1.581 µM),relative viability (XMD13-2 + Olaparib; first compound 5 µM),relative viability (Dasatinib + Luminespib; first compound 0.005 µM),relative viability (Dasatinib + Luminespib; first compound 0.01581 µM),relative viability (Dasatinib + Luminespib; first compound 0.05 µM),relative viability (Dasatinib + Luminespib; first compound 0.1581 µM),relative viability (Dasatinib + Luminespib; first compound 0.5 µM),relative viability (XMD13-2 + Linsitinib; first compound 0.05 µM),relative viability (XMD13-2 + Linsitinib; first compound 0.1581 µM),relative viability (XMD13-2 + Linsitinib; first compound 0.5 µM),relative viability (XMD13-2 + Linsitinib; first compound 1.581 µM),relative viability (XMD13-2 + Linsitinib; first compound 5 µM),relative viability (Dasatinib + Tozasertib; first compound 0.005 µM),relative viability (Dasatinib + Tozasertib; first compound 0.01581 µM),relative viability (Dasatinib + Tozasertib; first compound 0.05 µM),relative viability (Dasatinib + Tozasertib; first compound 0.1581 µM),relative viability (Dasatinib + Tozasertib; first compound 0.5 µM)
BEN,0.925,0.94,0.941,1.12,0.995,0.439,0.547,0.266,0.2,0.269,1.07,0.884,0.963,0.866,0.898,0.516,0.412,0.489,0.415,0.406
CAL-12T,0.694,0.799,0.708,0.695,0.697,0.794,0.374,0.334,0.129,0.072,0.802,0.764,0.837,0.68,0.843,0.386,0.346,0.297,0.228,0.112
COR-L23,0.327,0.36,0.33,0.336,0.387,0.698,0.531,0.7,0.461,0.299,1.01,0.917,1.02,0.848,0.872,0.199,0.159,0.173,0.119,0.109
COR-L 105,0.606,0.678,0.656,0.564,0.759,0.67,0.588,0.637,0.571,0.22,1.04,1.13,1,0.875,0.797,0.375,0.299,0.332,0.228,0.208
EKVX,0.984,0.871,0.907,–,0.907,0.797,0.665,0.808,0.637,0.207,1.16,0.911,0.992,0.871,1.05,0.372,0.279,0.303,0.214,0.119
EMC-BAC-2,0.575,0.526,0.499,0.465,0.439,0.978,0.93,0.942,0.558,0.44,0.912,0.82,0.841,0.848,0.689,0.271,0.205,0.226,0.179,0.164
EPLC-272H,0.976,0.854,0.748,0.528,0.172,0.679,0.392,0.512,0.121,0.111,1.21,1.08,1.25,1.06,0.284,0.254,0.282,0.222,0.137,0.122
H3255,0.635,0.634,0.584,0.519,0.558,0.919,0.901,0.793,0.919,0.371,1.12,1,0.946,0.97,0.94,0.721,0.543,0.463,0.547,0.322
